Here are results for 8 compounds from patent publication US9931315B2, “Method of selectively inhibiting Ras-mediated tumor growth in humans” (ADT PHARMACEUTICALS, INC., priority 2014, dated 2018).

One series concerns A549 lung cancer cells. Put plainly: Cell growth inhibition (CellTiter-Glo ATP assay), A549 cells with mutant K-Ras. It is filed as cell-based, human. To be noted: for IC50: Homo sapiens, A549, 72 h, growth inhibition, three days treatment, K-Ras mutant lung cancer cells, read-out: A549 (Ras-activated) IC50; for Selectivity HT-29/A549: ratio IC50 HT-29 (WT Ras) / IC50 A549 (Ras-activated). As for the experimental part:
This example illustrates cell growth assays employed in the present invention. Cells used in such assays included A-549, HT-29, MDA-MB-231, Colo-205, Caco2, HCT-116, SW-480, and DLD-1 human cancer cells obtained from the American Type Culture Collection (ATCC).
(§1) Human tumor cells were cultured using standard methods in RPMI-1640 growth medium supplemented with 5% fetal bovine serum (FBS). Normal rat kidney (NRK) and Ki-Ras transformed NRK cells (K-NRK) were obtained from ATCC, and were cultured according to supplier recommendations. CellTiter-Glo ATP cell growth assay reagents were obtained from Promega and used according to the manufacturer's protocol. Inhibitors of EGFR, Raf, and MEK were obtained from Selleck Chemicals. Cells were plated at a density of 5,000 cells per well in 96-well microplates or 1,250 cells per well in 384-well plates, and allowed to attach for at least 4 h. Test compounds were dissolved in dimethyl sulfoxide (DMSO), and this working stock was further diluted in growth medium for addition to cell cultures. Serial dilutions of the test compound were prepared in growth medium containing an equal amount of DMSO not exceeding 0.2% final concentration. Each compound concentration was tested in at least 3 separate samples per cell line. At the end of a 3-day treatment period, growth inhibition was analyzed using a bioluminescent assay of ATP concentration (Promega CellTiter-Glo) according to the manufacturer's protocol. Resulting luminescence was measured using the luminescence cartridge of the Molecular Devices Spectramax Paradigm microplate reader. Relative growth inhibition for each sample was determined by comparison with the values obtained for vehicle treated control samples. Growth inhibition values were plotted with the GraphPad Prism5 software using the 4-parameter logistic fit to obtain IC50 values, which corresponds to the growth inhibitory potency of the compound.
(§2) This example illustrates effects of exemplary compounds of the present invention on cancer cells having activated or mutated Ras compared to wild-type (WT) Ras. […] A549 lung cancer cells, which harbor a mutation in the K-Ras oncogene were treated for three days with the compounds.
(Cellular ATP, detected with luciferase, serves as a proxy for viable cell number.)

A further series has as its system HT-29 colon cancer cells. Briefly: Cell growth inhibition (CellTiter-Glo ATP assay), HT-29 cells with wild-type Ras. It is filed as cell-based, human. The procedure: (§3) This example illustrates cell growth assays employed in the present invention.
as §1, with “Normal” for “Human tumor cells were cultured using standard methods in RPMI-1640 growth medium supplemented with 5% fetal bovine serum (FBS). Normal”
as §2
(§4) Cells were seeded in 384-well plates and allowed to attach. Ten-fold serial dilutions of compounds were tested. Each compound concentration was tested in at least 3 separate samples per cell line.

The next series has as its system SW-480 cells. Briefly: Cell growth inhibition (CellTiter-Glo), SW-480 colorectal cells with activated Ras. It is filed as cell-based, human. To be noted: for IC50: 384-well plates; for Selectivity Caco-2/SW-480: ratio IC50 Caco-2 (WT Ras) / IC50 SW-480 (Ras activated). The procedure: as §3
as §1, with “Normal” for “Human tumor cells were cultured using standard methods in RPMI-1640 growth medium supplemented with 5% fetal bovine serum (FBS). Normal”
The growth inhibitory activity of the compounds was tested using the CellTiter-Glo assay. Cells were seeded in 384-well plates and allowed to attach, then ten-fold serial dilutions of compounds were tested. Each concentration was tested in at least 3 separate samples per cell line.
as §4

The subject of the next series is Caco-2 cells. Put plainly: Cell growth inhibition (CellTiter-Glo), Caco-2 colorectal cells with wild-type Ras. It is filed as cell-based, human. To be noted: 384-well plates.
Series [1] relates to HCT-116 colon tumor cells. Put plainly: Cell growth inhibition (CellTiter-Glo), HCT-116 colon tumor cells expressing mutant Ras. It is filed as cell-based, human. To be noted: for HT-29/HCT-116 selectivity values: ratio IC50 HT-29 (WT Ras) / IC50 HCT-116 (mutant Ras), 5000 cells/well, 96-well plates. The procedure: This example illustrates cell growth assays employed in the present invention. […] Normal rat kidney (NRK) and Ki-Ras transformed NRK cells (K-NRK) were obtained from ATCC, and were cultured according to supplier recommendations. CellTiter-Glo ATP cell growth assay reagents were obtained from Promega and used according to the manufacturer's protocol. Inhibitors of EGFR, Raf, and MEK were obtained from Selleck Chemicals. Cells were plated at a density of 5,000 cells per well in 96-well microplates or 1,250 cells per well in 384-well plates, and allowed to attach for at least 4 h. Test compounds were dissolved in dimethyl sulfoxide (DMSO), and this working stock was further diluted in growth medium for addition to cell cultures. Serial dilutions of the test compound were prepared in growth medium containing an equal amount of DMSO not exceeding 0.2% final concentration. Each compound concentration was tested in at least 3 separate samples per cell line. At the end of a 3-day treatment period, growth inhibition was analyzed using a bioluminescent assay of ATP concentration (Promega CellTiter-Glo) according to the manufacturer's protocol. Resulting luminescence was measured using the luminescence cartridge of the Molecular Devices Spectramax Paradigm microplate reader. Relative growth inhibition for each sample was determined by comparison with the values obtained for vehicle treated control samples. […] This example illustrates use of well-established human colon tumor cell lines with widely divergent Ras activation status to determine selectivity values for exemplary compounds of the present invention. […] Cells were plated at 5000 cells/well in 96-well plates, and viable cell numbers were measured using the Cell Titer Glo ATP luminescence assay (Promega). […] Cells were seeded in 384-well plates and allowed to attach. Ten-fold serial dilutions of compounds were tested. Each compound concentration was tested in at least 3 separate samples per cell line.

The test system of a further series is DLD-1 cells. Briefly: Cell growth inhibition (CellTiter-Glo), DLD-1 colorectal cells. It is filed as cell-based, human. To be noted: known Ras pathway inhibitors, 384-well plates, Table 4.
The test system of another series is COLO-205 cells. Put plainly: Cell growth inhibition (CellTiter-Glo), COLO-205 colorectal cells. It is filed as cell-based, human. To be noted: known Ras pathway inhibitors, 384-well plates, Table 4.
In series [2] the test system is panel of colorectal cancer cell lines. Put plainly: Growth inhibition of known Ras pathway inhibitors across the colorectal cell line panel, pattern versus Ras activation. It is filed as cell-based, human. To be noted: HCT-116, DLD-1, SW-480, Caco-2, HT-29, COLO-205 panel. As for the experimental part:
This example illustrates non-selective growth inhibition with known Ras pathway inhibitors which are not compounds of the present invention. In particular, the growth inhibitory activity of commercially available compounds which are active in the Ras signal transduction pathway were tested in the same panel of cell lines using the CellTiter-Glo assay. Cells were seeded in 384-well plates and allowed to attach. Ten-fold serial dilutions of compounds were tested. Each compound concentration was tested in at least 3 separate samples per cell line.

In series [3] the test system is cells expressing oncogenic H-Ras. To be noted: NIH probe report, cited from earlier work.
Setting [4] is: Homo sapiens, HT-29, growth inhibition, colon cancer cells with wild-type Ras, Table 2, read-out: HT-29 (WT Ras) IC50.
The mark [5] stands for this setting: Homo sapiens, SW480, growth inhibition, Table 3, read-out: SW-480 (Ras Activated IC50).
The mark [6] stands for this setting: Homo sapiens, Caco-2, growth inhibition, Table 3, read-out: Caco-2 (WT Ras) IC50.

Read-outs that look alike come from different tables or passages of the source. Where only a bound is given, the exact number is not on record here.

Turning to `COc1ccc2c(c1)C(CC(=O)NCc1ccco1)=C(C)/C2=C/c1cc(OC)c(O)c(OC)c1` [Compound 006, (Z)—N-(furan-2-ylmethyl)-2-(1-(4-hydroxy-3,5-dimethoxybenzylidene)-5-methoxy-2-methyl-1H-inden-3-yl)acetamide], the 50% inhibitory concentration (IC50) was found to be 11 nM in the series with A549 lung cancer cells, 8130 nM in the series on HT-29 colon cancer cells (setting [4]), 2.85 nM in the series with SW-480 cells (setting [5]) and 428 nM with Caco-2 cells (setting [6]). In addition, the “Selectivity HT-29/A549” value in the series with A549 lung cancer cells stood at 739. In addition, in the series with SW-480 cells, the “Selectivity Caco-2/SW-480” value is 150. Further, the HT-29/HCT-116 selectivity values in series [1] came out at 43.
Take `COc1cc(/C=C2/C(C)=C(CC(=O)NCc3ccco3)c3cc(F)ccc32)cc(OC)c1O` [Compound 007, (Z)-2-(5-fluoro-1-(4-hydroxy-3,5-dimethoxybenzylidene)-2-methyl-1H-inden-3-yl)-N-(furan-2-ylmethyl)acetamide]: the IC50 with A549 lung cancer cells was 0.86 nM; in the series on HT-29 colon cancer cells (setting [4]) it was 280 nM; with SW-480 cells (setting [5]), 0.37 nM; with Caco-2 cells (setting [6]) it was 1.97 nM. Moreover, the “Selectivity HT-29/A549” value in the series with A549 lung cancer cells amounted to 326. In addition, the “Selectivity Caco-2/SW-480” value with SW-480 cells is on record as 5. For the same compound, in series [1], the HT-29/HCT-116 selectivity values came out at 92.
As for `COc1ccc2c(c1)C(CC(=O)NCc1cccnc1)=C(C)/C2=C/c1cc(OC)c(O)c(OC)c1` [Compound 009, (Z)-2-(1-(4-hydroxy-3,5-dimethoxybenzylidene)-5-methoxy-2-methyl-1H-inden-3-yl)-N-(pyridin-3-ylmethyl)acetamide], the IC50 in the series with A549 lung cancer cells came out at 353 nM; with HT-29 colon cancer cells (setting [4]) it was 4830 nM; in the series with SW-480 cells (setting [5]) it was 223 nM; in the series on Caco-2 cells (setting [6]), 2610 nM. Also, in the series with A549 lung cancer cells, the “Selectivity HT-29/A549” value came out at 14. Moreover, the “Selectivity Caco-2/SW-480” value in the series with SW-480 cells turned out to be 12.
`COc1cc(/C=C2/C(C)=C(CC(=O)NCc3ccccn3)c3cc(F)ccc32)cc(OC)c1O` [Compound 010, (Z)-2-(5-fluoro-1-(4-hydroxy-3,5-dimethoxybenzylidene)-2-methyl-1H-inden-3-yl)-N-(pyridin-2-ylmethyl)acetamide]: the IC50 in the series with A549 lung cancer cells came to 170 nM; in the series with HT-29 colon cancer cells (setting [4]), 712 nM; in the series on SW-480 cells (setting [5]) it was 2.1 nM; in the series on Caco-2 cells (setting [6]), 33.8 nM. Also, the “Selectivity HT-29/A549” value in the series with A549 lung cancer cells was 4. The “Selectivity Caco-2/SW-480” value with SW-480 cells worked out at 16. Besides, the HT-29/HCT-116 selectivity values in series [1] was 141.
Turning to `COc1cc(/C=C2/C(C)=C(CC(=O)NCc3cccnc3)c3cc(F)ccc32)cc(OC)c1O` [Compound 011, (Z)-2-(5-fluoro-1-(4-hydroxy-3,5-dimethoxybenzylidene)-2-methyl-1H-inden-3-yl)-N-(pyridin-3-ylmethyl)acetamide], the IC50 in the series with A549 lung cancer cells worked out at 15 nM; with HT-29 colon cancer cells (setting [4]) it was 2940 nM; in the series on SW-480 cells (setting [5]), 21.3 nM; in the series with Caco-2 cells (setting [6]), 47.6 nM. Also, the “Selectivity HT-29/A549” value in the series with A549 lung cancer cells is on record as 196. Besides, in the series on SW-480 cells, the “Selectivity Caco-2/SW-480” value was determined as 2. For the same compound, the HT-29/HCT-116 selectivity values in series [1] is recorded as 168.
Turning to `O=C1Nc2ccc(I)cc2/C1=C/c1cc(Br)c(O)c(Br)c1` [GW5074, reference compound], the IC50 with HT-29 colon cancer cells (known Ras pathway inhibitors, 384-well plates, Table 4, read-out: HT-29 IC50) was 19100 nM; in the series on SW-480 cells (known Ras pathway inhibitors, Table 4, read-out: SW-480 IC50), 8070 nM; with Caco-2 cells (known Ras pathway inhibitors, Table 4, read-out: Caco-2 IC50), greater than 20000 nM; in series [1] (known Ras pathway inhibitors, 384-well plates, Table 4), 15800 nM; in the series with DLD-1 cells it was 7750 nM; with COLO-205 cells, 7100 nM. For the same compound, the “selectivity with regard to Ras activation” value in series [2] is given as “did not show selectivity”.
`Cc1onc(C(=O)N2CCN(C(c3ccc(Cl)cc3)c3ccc(Cl)cc3)CC2)c1[N+](=O)[O-]` [ML210]: the “selectivity versus cells lacking oncogenic Ras” value in series [3] is listed as 4 fold. The IC50 in series [3] (read-out: IC50, growth of cells expressing mutant Ras) is 71 nM.
In turn, `Cn1cnc2c(F)c(Nc3ccc(Br)cc3Cl)c(C(=O)NOCCO)cc21` [Selumetinib] came in with an IC50 with DLD-1 cells (Homo sapiens, DLD-1) of 20400 nM.

The IC50 is the concentration that inhibits the measured activity by half.
